Patent EP4309647A1, “G[…] FRACTIONS OF PINE NUT SKIN, METHODS AND USES THEREOF” (Universidade de Aveiro, priority 2022, dated 2024)

Experiment: Effect on cholesterol solubility / bioaccessibility in an in vitro intestinal model (GDCA bile salt micelles, 13C NMR quantification of [4-13C]cholesterol)
Conditions: cholesterol 3.5 mM, amount equivalent to 3.5 mM β-sitosterol
Procedure: In an embodiment, to evaluate the effect of the lipophilic extracts on cholesterol solubility, an in vitro intestinal model with glycodehoxycholic acid (GDCA) at 37 °C and pH 7.4 was used.
In an embodiment, solutions of cholesterol labeled with carbon-13 at carbon 4 ([4-^13C]cholesterol) with or without pine nut skin extracts was prepared in azeotropic mixtures of chloroform/methanol (87:13, v/v). Films are formed by solvent evaporation under a stream of nitrogen and heating. To remove possible traces of organic solvents, the films with cholesterol were placed on a desiccator under vacuum during, for example, 30 minutes at room temperature. […]
In an embodiment, to evaluate this effect, the bioaccessibility of labelled cholesterol([4-^13C]cholesterol) was measured by ^13C NMR, using an in vitro intestinal model composed of glycodeoxycholic acid bile salt micelles and lipophilic extracts from pine nut skin and from the two separated fractions, added individually.
In an embodiment, the quantification of cholesterol by ^13C NMR was possible due to the utilization of an isotopomer of cholesterol fully enriched in ^13C in carbon 4, which has a typical peak at 44 ppm, distinguishable from GDCA resonances. […] This methodology allows to quantify [4-^13C] cholesterol which is emulsified on the bile salt micelles, that is, the available quantity which is likely to be absorbed (bioaccessible). […]

CC[C@H](CC[C@@H](C)[C@H]1CC[C@H]2[C@@H]3CC=C4C[C@@H](O)CC[C@]4(C)[C@H]3CC[C@]12C)C(C)C [β-Sitosterol]
cholesterol emulsified (solubilized, bioaccessible) (GDCA 50 mM): 1.6 mM
reduction of cholesterol solubility / bioaccessability relatively to the control (control = GDCA and [4-13C]cholesterol): 49%
